Like-named read-outs stand apart in the source and are kept apart here.
What was measured:
[1] = cited from earlier work
[2] = Solubility test: dithiol compound in 100 g of respective solvents at 25° C.; format: physicochemical
Procedure: The solubilities (weight %) of the dithiol compound in 100 g of the respective solvents shown in Table 1 at 25° C. ar indicated in Table 1.

[3] = Storage and stability test in transparent glass vessels at 60° C. (50% compositions, HPLC remaining rate); format: physicochemical
Procedure: In transparent 50 ml-glass vessels, a 50% N-methyl-2-pyrrolidone composition of the dithiol compound (the composition of the present invention), a 50% dimethylformamide composition containing 5 weight % diethylene glycol monomethyl ether, a 50% N-vinyl-2-pyrrolidone composition and a 50% 2-pyrrolidone composition of the dithiol compound (compositions for comparison) were prepared, and the storage and stability tests were conducted.
The tests were conducted by leaving the compositions standing at 60° C. for 15 days and 30 days and examining the remaining rate of the dithiol compound based upon the measurement of area ratio at 317 nm by means of high performance liquid chromatography (HPLC).

[4] = Crystallization and redissolution test; format: physicochemical
Procedure: In transparent 50 ml-glass vessels, the dithiol compound and N-methyl-2-pyrrolidone were mixed at the prescribed concentrations, and dissolved, if necessary, under heating. The crystals were yielded by cooling these solutions suitably, under the observation of the state. The crystallizing temperature was measured. The crystallized solutions were heated, and the temperature at which the crystals began to dissolve was measured.

[5] = Storage and stability test in polyethylene bottle in can at 60° C. (HPLC remaining rate; half life); format: physicochemical; details: for Half life of dithiol compound: first order
Procedure: The dithiol compound and N-methyl-2-pyrrolidone were mixed at the concentrations as shown in Table 4 to prepare compositions. Each 50 ml of the compositions was served in a polyethylene bottle, and the bottle was further served tightly in a can with a lid.
The storage and stability tests were conducted by leaving the compositions standing at 60° C. for 11 days (or 15 days) and 30 days in the above state and examining the remaining rate of the dithiol compound based upon the measurement of area ratio at 317 nm by means of high performance liquid chromatography (HPLC).
Since the decomposition rate of the dithiol compound fit to the first order reaction, a half life of the dithiol compound (t 1/2), in the each compositions at 60° C., was calculated with the following equation: […]
wherein α represents a remaining percentage of the dithiol compound, k represents a decomposition rate constant of the dithiol compound and t represents a number of days.

[6] = State of compositions (crystallization, solidification, scoopability, stability) in storage and at low temperature; format: physicochemical; details: compositions with N-methyl-2-pyrrolidone
[7] = cited from earlier work; remark: listed apart in the source
[8] = cited from earlier work; remark: listed apart in the source
[9] = powdery form; cited from earlier work
[10] = tested on: viable microbes in industrial cooling water, washing water, raw water, power water; details: raw water and power water, Kokoku No. 14294/1977; cited from earlier work
[11] = 10 weight % in N-methyl-2-pyrrolidone
[12] = 20 weight % in N-methyl-2-pyrrolidone
[13] = 30 weight % in N-methyl-2-pyrrolidone
[14] = 40 weight % in N-methyl-2-pyrrolidone
[15] = 50 weight % in N-methyl-2-pyrrolidone
[16] = 60 weight % in N-methyl-2-pyrrolidone
[17] = 70 weight % in N-methyl-2-pyrrolidone
[18] = 80 weight % in N-methyl-2-pyrrolidone

SMILES: CN1CCCC1=O [N-Methyl-2-pyrrolidone]
- Odor, inflammability, toxicity ([1]; solvent N-Methyl-2-pyrrolidone): few problems in terms of odor, inflammability, toxicity

SMILES: CN(C)C=O [dimethylformamide]
- Toxicity ([1]; solvent): inherently so strong in toxicity

SMILES: O=c1ssc(Cl)c1Cl [dithiol compound, 4,5-Dichloro-l,2-dithiol-3-one]
- Solubility ([2]; in 1,2-Bis(bromoacetoxy)ethane): 21.9 weight %
- Solubility ([2]; in 2-Pyrrolidone): 51.0 weight %
- Amount by weight of dissolved dithiol compound ([2]; in 100 g 1,2-Bis(bromoacetoxy)ethane): 28 g
- Amount by weight of dissolved dithiol compound ([2]; in 100 g 2-Pyrrolidone): 104 g
- Amount by weight of dissolved dithiol compound ([2]; in 100 g Dimethylformamide containing 5 weight % diethylene glycol monomethyl ether): 206 g
- Amount by weight of dissolved dithiol compound ([2]; in 100 g N-Methyl-2-pyrrolidone): 222 g
- Amount by weight of dissolved dithiol compound ([2]; in 100 g N-Vinyl-2-pyrrolidone): 117 g
- Solubility ([2]; in Dimethylformamide containing 5 weight % diethylene glycol monomethyl ether): 67.3 weight %
- Solubility ([2]; in N-Methyl-2-pyrrolidone): 68.9 weight %
- Solubility ([2]; in N-Vinyl-2-pyrrolidone): 53.9 weight %
- Remaining percentage of dithiol compound ([3]; 50% in 2-pyrrolidone, 60° C., 15 days): 38.9%
- Remaining percentage of dithiol compound ([3]; 50% in 2-pyrrolidone, 60° C., 30 days): 18.0%
- Remaining percentage of dithiol compound ([3]; 50% in Dimethylformamide containing 5 weight % diethylene glycol monomethyl ether, 60° C., 15 days): 94.2%
- Remaining percentage of dithiol compound ([3]; 50% in Dimethylformamide containing 5 weight % diethylene glycol monomethyl ether, 60° C., 30 days): 84.7%
- Remaining percentage of dithiol compound ([3]; 50% in N-methyl-2-pyrrolidone, 60° C., 15 days): 97.3%
- Remaining percentage of dithiol compound ([3]; 50% in N-methyl-2-pyrrolidone, 60° C., 30 days): 93.3%
- Observation on mixing with N-vinyl-2-pyrrolidone ([3]; N-Vinyl-2-pyrrolidone composition could not be obtained, in a few minutes after mixing): exothermic polymerization reaction occurred intensively
- Decomposition of dithiol compound in the composition of the invention ([3]; in N-methyl-2-pyrrolidone, left standing 15 days and 30 days, 60° C.): scarcely decomposed
- Crystallizing temperature [4, 11]: -29.3 °C
- Crystals-dissolving temperature [4, 11]: -23.7 °C
- Crystallizing temperature [4, 12]: -27.8 °C
- Crystals-dissolving temperature [4, 12]: -22.7 °C
- Crystallizing temperature [4, 13]: -22.0 °C
- Crystals-dissolving temperature [4, 13]: -16.2 °C
- Crystallizing temperature [4, 14]: -18.8 °C
- Crystals-dissolving temperature [4, 14]: -9.2 °C
- Crystallizing temperature [4, 15]: -18.3 °C
- Crystals-dissolving temperature [4, 15]: 4.7 °C
- Crystallizing temperature [4, 16]: -13.3 °C
- Crystals-dissolving temperature [4, 16]: 12.0 °C
- Crystallizing temperature [4, 17]: 6.0 °C
- Crystals-dissolving temperature [4, 17]: 26.5 °C
- Crystallizing temperature [4, 18]: 26.8 °C
- Crystals-dissolving temperature [4, 18]: 36.2 °C
- Remaining percentage of dithiol compound ([5]; 5% in N-methyl-2-pyrrolidone, 15 days): 70.8%
- Remaining percentage of dithiol compound ([5]; 5% in N-methyl-2-pyrrolidone, 30 days): 58.3%
- Half life of dithiol compound ([5]; 5% in N-methyl-2-pyrrolidone): 39 days
- Remaining percentage of dithiol compound ([5]; 10% in N-methyl-2-pyrrolidone, 11 days): 90.5%
- Remaining percentage of dithiol compound ([5]; 10% in N-methyl-2-pyrrolidone, 30 days): 83.2%
- Half life of dithiol compound ([5]; 10% in N-methyl-2-pyrrolidone): 103 days
- Remaining percentage of dithiol compound ([5]; 15% in N-methyl-2-pyrrolidone, 11 days): 93.7%
- Remaining percentage of dithiol compound ([5]; 15% in N-methyl-2-pyrrolidone, 30 days): 87.4%
- Half life of dithiol compound ([5]; 15% in N-methyl-2-pyrrolidone): 145 days
- Remaining percentage of dithiol compound ([5]; 20% in N-methyl-2-pyrrolidone, 11 days): 93.8%
- Remaining percentage of dithiol compound ([5]; 20% in N-methyl-2-pyrrolidone, 30 days): 88.2%
- Half life of dithiol compound ([5]; 20% in N-methyl-2-pyrrolidone): 153 days
- Remaining percentage of dithiol compound ([5]; 25% in N-methyl-2-pyrrolidone, 11 days): 94.3%
- Remaining percentage of dithiol compound ([5]; 25% in N-methyl-2-pyrrolidone, 30 days): 89.0%
- Half life of dithiol compound ([5]; 25% in N-methyl-2-pyrrolidone): 165 days
- Remaining percentage of dithiol compound ([5]; 30% in N-methyl-2-pyrrolidone, 11 days): 95.6%
- Remaining percentage of dithiol compound ([5]; 30% in N-methyl-2-pyrrolidone, 30 days): 88.8%
- Half life of dithiol compound ([5]; 30% in N-methyl-2-pyrrolidone): 174 days
- Remaining percentage of dithiol compound ([5]; 35% in N-methyl-2-pyrrolidone, 11 days): 95.7%
- Remaining percentage of dithiol compound ([5]; 35% in N-methyl-2-pyrrolidone, 30 days): 89.3%
- Half life of dithiol compound ([5]; 35% in N-methyl-2-pyrrolidone): 181 days
- Remaining percentage of dithiol compound ([5]; 40% in N-methyl-2-pyrrolidone, 11 days): 96.6%
- Remaining percentage of dithiol compound ([5]; 40% in N-methyl-2-pyrrolidone, 30 days): 90.4%
- Half life of dithiol compound ([5]; 40% in N-methyl-2-pyrrolidone): 209 days
- Remaining percentage of dithiol compound ([5]; 50% in N-methyl-2-pyrrolidone, 15 days): 97.3%
- Remaining percentage of dithiol compound ([5]; 50% in N-methyl-2-pyrrolidone, 30 days): 93.3%
- Half life of dithiol compound ([5]; 50% in N-methyl-2-pyrrolidone): 300 days
- Storage and stability of the effective ingredient [6]: extremely high
- Stability in aqueous solution ([7]; aqueous solution): very unstable in the obtained aqueous solution and susceptible to hydrolysis in a short period of time
- Solubility in water ([7]; water): below 1%
- Storage and stability of the dithiol compound ([8]; diethylene glycol monomethyl ether / dimethylformamide preparations, long period): insufficient to storage and stability of the dithiol compound over a long period
- Solubility of the dithiol compound ([8]; in 1,2-bis(bromoacetoxy)ethane, U.S. Pat. No. 4647577): about 22%
- Solubility of the dithiol compound ([8]; in mixed solvent of diethylene glycol monomethyl ether and dimethylformamide, 25° C., Kokoku No. 23721/1987): about 67 weight %
- Skin irritancy [9]: highly skin-irritant
- Slime control [10]: excellent slime control agent
